In patent US9326973B2, “Hepatitis C virus inhibitors” (priority 2012, dated 2016):

system: HCV replicon, genotype-1a variant with glutamine 30 changed to glutamate in the NS5A protein; assay: microbe, parasite or virus in culture; assay type: cell-based, HCV genotype 1a; conditions: HCV replicon genotype 1a Q30E (Q→E) variant; test compound titrated with an NS5A-targeting compound (BMS-790052 fixed at 200 nM); ranking of synergist activity
Procedure, shortened: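 Synergy was assessed by combining several fixed amounts of an NS5A-targeting compound with a titration of the second compound of interest.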

SMILES	Fold-Synergistic 1a (Q30E) [fold]
COc1ccc2c(C(=O)N3CCC[C@H]3c3ncc(-c4ccc(-c5ccc(-c6cnc([C@@H]7CCCN7C(=O)c7nccc8cc(OC)ccc78)[nH]6)cc5)cc4)[nH]3)nccc2c1 [Compound S-198]	>100
COC(C)(C)C(=O)N[C@H](c1nc(-c2ccc(-c3ccc(-c4c[nH]c([C@@H](NC(=O)C(C)(C)OC)C(C)(C)C)n4)c(C)c3)cc2)c[nH]1)C(C)(C)C [Compound N-85]	>100
CC(C)(C)OC(=O)NC1(C(=O)N[C@H](c2nc(-c3ccc(-c4ccc(-c5c[nH]c([C@@H](NC(=O)C6(NC(=O)OC(C)(C)C)CCC(F)(F)CC6)C(C)(C)C)n5)cc4)cc3)c[nH]2)C(C)(C)C)CCC(F)(F)CC1 [Compound L-49]	>100
O=C(C1CCCC1)N1CCC[C@H]1c1ncc(-c2ccc(-c3ccc(-c4cnc([C@@H]5CCCN5C(=O)C5CCCC5)[nH]4)cc3)cc2)[nH]1 [Compound S-164]	<10
CCCC(C)(C)C(=O)N[C@H](c1nc(-c2ccc(-c3ccc(-c4c[nH]c([C@@H](NC(=O)C(C)(C)CCC)C(C)(C)C)n4)cc3)cc2)c[nH]1)C(C)(C)C [Compound S-281]	>100
CN(C)C(=N[C@H](c1ncc(-c2ccc(-c3ccc(-c4cnc([C@@H](NC(=O)C5(C6(O)CCOCC6)CCC5)C(C)(C)C)[nH]4)cc3)cc2)[nH]1)C(C)(C)C)N(C)C [Compound B85]	>10
COC(=O)N[C@H](C(=O)N[C@H](c1nc(-c2ccc(-c3ccc(-c4c[nH]c([C@@H](NC(=O)[C@@H](NC(=O)OC)C5C[C@@H](C)O[C@H](C)C5)C(C)(C)C)n4)cc3)cc2)c[nH]1)C(C)(C)C)C1C[C@@H](C)O[C@H](C)C1 (stereo partly drawn) [Compound L-72]	>10
CC(C)(C)[C@H](NC(=O)[C@H](O)C1CCCCC1)c1nc(-c2ccc(-c3ccc(-c4c[nH]c([C@@H](NC(=O)[C@H](O)C5CCCCC5)C(C)(C)C)n4)cc3)cc2)c[nH]1 [Compound L-74]	>100
CC(C)(C)[C@H](NC(=O)C1CCC(F)(F)CC1)c1nc(-c2ccc(-c3cnc(-c4c[nH]c([C@@H](NC(=O)C5CCC(F)(F)CC5)C(C)(C)C)n4)cn3)cc2)c[nH]1 [Compound N-104]	>100
CCCC(C)C(=O)N1CCC[C@H]1c1ncc(-c2ccc(-c3ccc(-c4cnc([C@@H]5CCCN5C(=O)C(C)CCC)[nH]4)cc3)cc2)[nH]1 (stereo partly shown) [Compound S-170]	<10
COC1(C(F)(F)C(=O)N[C@H](c2nc(-c3ccc(-c4ccc(-c5c[nH]c([C@@H](NC(=O)C(F)(F)C6(OC)CCCCC6)C(C)(C)C)n5)cc4)cc3)c[nH]2)C(C)(C)C)CCCCC1 [Compound P-167]	>100
O=C(N[C@H](c1nc(-c2ccc(-c3ccc(-c4c[nH]c([C@@H](NC(=O)C5CCC(F)(F)CC5)C5CC5)n4)cc3)cc2)c[nH]1)C1CC1)C1CCC(F)(F)CC1 [Compound L-90]	>100
O=C(Cc1ccc2ccccc2c1)N1CCC[C@H]1c1ncc(-c2ccc(-c3ccc(-c4cnc([C@@H]5CCCN5C(=O)Cc5ccc6ccccc6c5)[nH]4)cc3)cc2)[nH]1 [Compound S-145]	>10
CC(C)[C@H](NC(=O)C1CCC(F)(F)CC1)c1nc(-c2ccc3c(c2)Cc2cc(-c4c[nH]c([C@@H](NC(=O)C5CCC(F)(F)CC5)C(C)C)n4)ccc2-3)c[nH]1 [Compound N-70]	>100
CC(C)(C)[C@H](NC(=O)C(F)(F)c1ccccc1)c1nc(-c2ccc(-c3ccc(-c4c[nH]c([C@@H](NC(=O)C(F)(F)c5ccccc5)C(C)(C)C)n4)cc3)cc2)c[nH]1 [Compound S-282]	>100
CN(C(=O)C(C)(C)C(=O)N[C@H](c1nc(-c2ccc(-c3ccc(-c4c[nH]c([C@@H](NC(=O)C(C)(C)C(=O)N(C)C5CC5)C(C)(C)C)n4)cc3)cc2)c[nH]1)C(C)(C)C)C1CC1 [Compound W-140]	<10
